{"source": "patent US20030064122A1", "about": "(priority 2001, published 2003)", "origin": "cited, not measured here", "tested_on": "nasal mucosa of men and women", "conditions": "introduced to the nasal mucosa of men and women"}
{"smiles": "COc1cc(CNC(=O)CCCCC=CC(C)C)ccc1O", "note": "[Capsaicin, 8-Methyl-N-vanillyl-6-nonenamide]", "values": [{"measurement": "amount shown to induce secretion, sneezing, and/or cough", "value": 75, "unit": "micrograms"}]}
